The values that follow come from ChEMBL document CHEMBL4433235, “Discovery of piperazic acid peptide deformylase inhibitors with in vivo activity for respiratory tract and skin infections” (Bioorg Med Chem Lett, 2019).

Values after ≈ are worked out from the molar mass of the structure shown.

Series [1] concerns Streptococcus pneumoniae. As to the kind of experiment: Antimicrobial activity against Streptococcus pneumoniae Ery-2 infected in respiratory tract infection rat model assessed as log reduction in bacterial CFU at 350 mg/kg, po BID dosed 1 hr post infection and measured for 96 hrs in presence of 50 mg/kg clavulanic acid. Format: functional.
The subject of series [2] is Streptococcus pneumoniae. The series is described as follows: Antimicrobial activity against Streptococcus pneumoniae Ery-2 in presence of clavulanic acid. Format: functional.
Series [3] has as its system Staphylococcus aureus. As to the kind of experiment: Antimicrobial activity against Staphylococcus aureus. Format: functional.
A further series concerns the target T1, Peptide deformylase (Staphylococcus aureus, UniProt P68826).
T1 sequence (P68826 whole entry): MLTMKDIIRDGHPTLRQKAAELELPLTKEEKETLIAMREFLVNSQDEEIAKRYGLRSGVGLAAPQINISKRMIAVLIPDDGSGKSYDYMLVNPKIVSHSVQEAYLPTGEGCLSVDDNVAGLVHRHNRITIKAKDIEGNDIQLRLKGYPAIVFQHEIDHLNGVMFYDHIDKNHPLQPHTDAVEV
The series is described as follows: Inhibition of Staphylococcus aureus PDF by absorbance detection assay.

Series [4] relates to Streptococcus pneumoniae. The series is described as follows: Antimicrobial activity against Streptococcus pneumoniae 1629. It counts as functional.
The test system of series [5] is Staphylococcus aureus. The series is described as follows: Antimicrobial activity against Staphylococcus aureus Oxford. It counts as functional.
The nature of series [6]: Half life in rat at 3 mg/kg, iv. It counts as ADME, organism-based. To be noted: in vivo.
Series [7] is described as follows: Solubility of compound by chemiluminescent nitrogen detection assay. Format: physicochemical.
A short description of series [8]: Oral bioavailability in rat at 5 mg/kg. To be noted: in vivo. It counts as ADME, organism-based.
Series [9] in a line: Half life in rat at 5 mg/kg, po. Format: ADME, organism-based. Conditions: in vivo.
Series [10] in a line: Inhibition of Haemophilus influenzae PDF by absorbance detection assay.
Series [11] has as its system Haemophilus influenzae. The series is described as follows: Antimicrobial activity against Haemophilus influenzae. Format: functional.
Series [12] is described as follows: AUC in rat at 5 mg/kg, po. Format: ADME, organism-based. Conditions: in vivo.
Series [13] can be described thus: Volume of distribution at steady state in rat at 3 mg/kg, iv. Format: ADME, organism-based. To be noted: in vivo, read-out: Vdss.
Series [14] can be described thus: AUC in rat at 3 mg/kg, iv. It counts as ADME, organism-based. Conditions: in vivo.
For series [15], the system named is Streptococcus pneumoniae. As to the kind of experiment: Antimicrobial activity against Streptococcus pneumoniae Ery-2 infected in respiratory tract infection rat model assessed as log reduction in bacterial CFU at 150 mg/kg, po BID dosed 1 hr post infection and measured for 96 hrs. Format: functional.
Series [16] can be described thus: Inhibition of Streptococcus pneumoniae PDF by absorbance detection assay.
The nature of series [17]: Chromatographic hydrophobicity index, log D of compound at pH 7.4. To be noted: buffer. Format: physicochemical.
Series [18] concerns Haemophilus influenzae. As to the kind of experiment: Antimicrobial activity against Haemophilus influenzae Q1. It counts as functional.
Series [19] deals with Streptococcus pneumoniae. As to the kind of experiment: Antimicrobial activity against Streptococcus pneumoniae. It counts as functional.
The test system of series [20] is Streptococcus pneumoniae. As to the kind of experiment: Antimicrobial activity against Streptococcus pneumoniae Ery-2. It counts as functional.
The subject of series [21] is Streptococcus pneumoniae. The series is described as follows: Antimicrobial activity against Streptococcus pneumoniae Ery-2 infected in respiratory tract infection rat model assessed as log reduction in bacterial CFU at 300 mg/kg, po BID dosed 1 hr post infection and measured for 96 hrs. Format: functional.
Series [22] can be described thus: Cmax in rat at 5 mg/kg, po. It counts as ADME, organism-based. On the set-up: dose 5 mg/kg, route oral. Conditions: in vivo.
Series [23] is described as follows: Clearance in rat at 3 mg/kg, iv. Conditions: in vivo. Format: ADME, organism-based.
Series [24] is described as follows: Half life in rat at 3.9 mg/kg, iv. Format: ADME, organism-based. To be noted: in vivo.
A short description of series [25]: AUC in rat at 8.5 mg/kg, po. Format: ADME, organism-based. Conditions: in vivo.
Series [26] in a line: Cmax in rat at 8.5 mg/kg, po. It counts as ADME, organism-based. On the set-up: dose 8.5 mg/kg, route oral. To be noted: in vivo.
Series [27] is described as follows: Volume of distribution at steady state in rat at 3.9 mg/kg, iv. Format: ADME, organism-based. To be noted: in vivo, read-out: Vdss.
A short description of series [28]: Clearance in rat at 3.9 mg/kg, iv. Format: ADME, organism-based. Conditions: in vivo.
The nature of series [29]: AUC in rat at 3.9 mg/kg, iv. To be noted: in vivo. Format: ADME, organism-based.
The nature of series [30]: Oral bioavailability in rat at 8.5 mg/kg. It counts as ADME, organism-based. Conditions: in vivo.

Take `CC1(C)S[C@@H]2[C@H](NC(=O)[C@H](N)c3ccc(O)cc3)C(=O)N2[C@H]1C(=O)O` [AMOXICILLIN]: the Activity with Streptococcus pneumoniae [1] is 5.2 log10CFU/ml. In the series with Streptococcus pneumoniae [2], the MIC came out at 0.03 µg/mL.

For `CCc1nnc(NC(=O)[C@@H]2CCCNN2C(=O)[C@H](CC2CCCC2)CN(O)C=O)s1`, the figures for the MIC90 in the series with Staphylococcus aureus [3], in the series with Haemophilus influenzae [11] and against Streptococcus pneumoniae [19] were 2 µg/mL (≈ 4.56 µM), 2 µg/mL (≈ 4.56 µM) and 1 µg/mL (≈ 2.28 µM), respectively. Besides, the figures for the IC50 (at Peptide deformylase; in [10]; in [16]) were 1 nM, 2 nM and 0.4 nM, respectively. Further, the MIC was found to be 1 µg/mL (≈ 2.28 µM) against Streptococcus pneumoniae [4], 1 µg/mL (≈ 2.28 µM) against Staphylococcus aureus [5], 1 µg/mL (≈ 2.28 µM) in the series on Haemophilus influenzae [18] and 0.5 µg/mL (≈ 1.14 µM) with Streptococcus pneumoniae [20]. In addition, the half-life (as a rule, the time needed for the level to fall by half in the phase considered) in series [6] was 6.7 h; in series [9] it was 4.7 h. The kinetic solubility – broadly, solubility judged after dilution from a stock solution rather than from solid – in [7] turned out to be 530 µM (≈ 232 µg/mL). For the same compound, the bioavailability (commonly the share of a dose that reaches the circulation, judged against a reference dose that is usually intravenous) in series [8] was found to be 36%. The AUC (as a rule, concentration integrated over time) in series [12] stood at 1580 ng·h/mL; in [14], 2140 ng·h/mL. In addition, in series [13], the Vd stood at 4 L/kg. The Activity with Streptococcus pneumoniae [15] came to 0.8 log10CFU/ml; in the series on Streptococcus pneumoniae [21], 1.7 log10CFU/ml. In series [17], this compound came in with a CHI of 3.38. Further, in series [22], the concentration peaked (Cmax) at 711 ng/mL. In addition, the clearance – broadly, the rate of elimination divided by the concentration – in series [23] stood at 20 mL/min/kg.

`Cc1nc(NNC(=O)[C@H](CC2CCCC2)CN(O)C=O)c(F)c(N2CCN3CCOC[C@@H]3C2)n1` [LANOPEPDEN] showed a half-life in series [24] of 0.7 h. Further, the results for the MIC90 against Staphylococcus aureus [3], against Haemophilus influenzae [11] and against Streptococcus pneumoniae [19] were 4 µg/mL (≈ 8.34 µM), 2 µg/mL (≈ 4.17 µM) and 1 µg/mL (≈ 2.09 µM), respectively. Further, the AUC came to 1450 ng·h/mL in [25] and 720 ng·h/mL in series [29]. Besides, the Cmax (usually the highest concentration seen after dosing) in [26] turned out to be 902 ng/mL. Besides, the IC50 (in general, the concentration needed to halve the response being measured) on Peptide deformylase turned out to be 12 nM; in [10], 3 nM; in [16], 3 nM. Further, the MIC against Streptococcus pneumoniae [4] came to 1 µg/mL (≈ 2.09 µM); against Staphylococcus aureus [5] it was 2 µg/mL (≈ 4.17 µM); against Haemophilus influenzae [18], 0.5 µg/mL (≈ 1.04 µM). Besides, the kinetic solubility in series [7] worked out at 241 µM (≈ 116 µg/mL). Further, the Vd in [27] stood at 2.5 L/kg. In [28], this compound displayed a clearance of 88 mL/min/kg. The same compound showed a CHI in series [17] of 2.54. In addition, the bioavailability in series [30] was 91%.
